According to BindingDB's records for doi:10.1016/j.bmcl.2009.04.039 (Johnson & Johnson Pharmaceutical Research & Development, 2009):

Target: T1, Signal transducer and activator of transcription 5A (Homo sapiens, UniProt P42229)
T1 sequence (P42229 whole entry): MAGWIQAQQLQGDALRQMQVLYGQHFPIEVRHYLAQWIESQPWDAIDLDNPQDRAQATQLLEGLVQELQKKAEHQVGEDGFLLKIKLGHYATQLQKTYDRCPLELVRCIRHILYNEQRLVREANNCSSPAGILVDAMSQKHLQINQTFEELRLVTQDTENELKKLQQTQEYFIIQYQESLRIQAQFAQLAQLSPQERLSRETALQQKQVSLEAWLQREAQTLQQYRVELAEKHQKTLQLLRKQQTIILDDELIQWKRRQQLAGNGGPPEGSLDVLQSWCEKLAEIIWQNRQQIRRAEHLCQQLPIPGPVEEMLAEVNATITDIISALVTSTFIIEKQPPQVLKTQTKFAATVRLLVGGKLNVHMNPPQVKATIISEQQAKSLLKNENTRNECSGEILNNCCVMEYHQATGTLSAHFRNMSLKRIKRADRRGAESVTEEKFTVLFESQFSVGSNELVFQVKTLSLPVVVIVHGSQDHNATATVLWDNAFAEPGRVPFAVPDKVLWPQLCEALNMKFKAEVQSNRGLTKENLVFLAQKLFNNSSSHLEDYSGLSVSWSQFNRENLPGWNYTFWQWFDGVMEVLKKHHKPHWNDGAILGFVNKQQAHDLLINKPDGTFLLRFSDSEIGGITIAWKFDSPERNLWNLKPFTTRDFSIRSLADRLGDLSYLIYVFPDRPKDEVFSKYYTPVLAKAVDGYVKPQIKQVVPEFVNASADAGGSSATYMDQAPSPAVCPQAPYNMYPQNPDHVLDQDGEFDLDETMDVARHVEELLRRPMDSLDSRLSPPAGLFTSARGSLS
Assay: Inhibition of STAT5 phosphorylation in IL2-stimulated healthy human T cells by Western blotting

O=C1NCc2c1c1c3ccccc3n3c1c1c2c2ccccc2n1C[C@@H](O)[C@@H](O)C3 [12,13-(2,3-Cis-dihyroxy-1,4-butyl)-6,7,12,13-tetrahydro-5-oxo-5H-indolo[2,3-a]pyrrolo[3,4-c]carbazole] gave an IC50 of 689 nM.
